# Literature values, collected in US20110064711A1, “COMPOSITIONS CONTAINING COENZYME Q-10 AND AN ANTIOXIDANT” (priority 2009, published 2011).
# Conditions: exposure to ambient air; general statement, time not given
compound,measurement,value
COc1c(O)c(C)c(C/C=C(\C)CC/C=C(\C)CC/C=C(\C)CC/C=C(\C)CC/C=C(\C)CC/C=C(\C)CC/C=C(\C)CC/C=C(\C)CC/C=C(\C)CCC=C(C)C)c(O)c1OC [Commercial reduced CoQ10 powder],reduced form of CoQ10 on a weight basis after exposure to air,below 20%
